The values that follow come from patent US20100144865A1, “COMPOUND FEED FOR AQUACULTURE” (priority 2007, published 2010).

This data set has as its system Atlantic salmon (Salmo salar L.) hepatocytes. The class given is in vitro ADME. How it is done:
The isolated hepatocytes were incubated with 35 nmol, 2.5 μCi of [1-^14C] 18:3 (n-3) as well as non radiolabeled 18:3 (n-3), final concentration 7 μM, in 5 ml of L 15 culture medium without FBS. The radio labeled FA was added to the medium as potassium salt bound to BSA. To each experimental flask (4 radiolabeled and 7 with non-radiolabeled 18:3 (n-3)), DMSO (7.4 μl/5 ml) with sesamin (final concentration 0.05 mM) was added and to each control flasks (4 radiolabeled and 7 with non-radiolabeled 18:3 (n-3)), only DMSO (7.4 μl/5 ml) was added, in another two flasks sesamin but no FA was added. The cells were incubated at 12° C. for 48 h. The radiolabeled experiment flasks with and without sesamin (4 each) were washed and harvested in PBS for further analysis of β-oxidation and radiolabeled lipid classes and radiolabeled cellular fatty acids. The cells in the two flasks with no FA substrate added were denaturated after the incubation and thereafter added radiolabeled substrate in order to be used as a negative control for the ASP measurements and HPLC analyses. In the non-labeled study, control and sesamin flask (4 each) were washed in PBS prior to isolation of mRNA according to the protocol RNeasy® Mini Kit for gene expression analysis and 3 flasks of each control and sesamin were washed and harvested in PSB for fatty acid and sesamin analysis.

On to `c1cc2c(cc1C1OCC3C(c4ccc5c(c4)OCO5)OCC13)OCO2` (stereo not drawn) [episesamin, 2,6-bis-(3,4-methylenedioxyphenyl)-trans-3,7-dioxabicyclo[3.3.0]octane], for which the “bioavailability in hepatocytes compared with sesamin” value was “higher”.
